According to article PMC11784839, “Monoaminergic neurotransmitters are bimodal effectors of tau aggregation” (Science Advances, 2025):

Target: tau (Homo sapiens, UniProt P10636)
Test: MCE Phenols Library screening, tau biosensor cell seeding assay (AvZ)
Format: cell-based
Conditions: for Z repl 1 / Z Repl 2: Z score; for Z repl 1 / raw data 1: replicate 1; for Z Repl 2 / raw data 2: replicate 2; for AvZ (average z score of seeding, SDs from the mean level of seeding): 10 μM phenol in cell cultures, AD brain homogenate preincubated 16 hours, two biological replicates, positive = catalyzes seeding, negative = inhibits
[1] = average Z score of the two replicates, MCE Phenols Library screen
[2] = average puncta of the two replicates
[3] = average Z score of the two replicates, tau seeding
[4] = average Z score of the two replicates, tau biosensor seeding, MCE Phenols Library screen

Sequence of tau (P10636 623-695 limits assumed): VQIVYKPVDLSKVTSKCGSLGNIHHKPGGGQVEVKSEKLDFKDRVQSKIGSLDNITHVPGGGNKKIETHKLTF

Compound: COc1cc2c(c(O)c1OC)-c1c(cc(OC)c(OC)c1OC)C[C@@H](C)[C@@H](C)C2 [Schisanhenol]
- Z repl 1: -0.397
- Z Repl 2: -0.108
- av Z [1]: -0.253
- av puncta [2]: 16597.3
- raw data 1 (raw puncta): 21578.6
- raw data 2 (raw puncta): 11616.1

Compound: O=C(/C=C/c1ccc(O)c(O)c1)OCCc1ccccc1 [Caffeic acid phenethyl ester]
- Z repl 1: -0.979
- Z Repl 2: -0.394
- av Z [1]: -0.686
- av puncta [2]: 11579.1
- raw data 1 (puncta): 14598.6
- raw data 2 (puncta): 8559.5

Compound: C[C@@H]1O[C@@H](Oc2cc(O)c3c(=O)c(O)c(-c4ccc(O)c(O)c4)oc3c2)[C@H](O)[C@H](O)[C@H]1O [Vincetoxicoside B]
- Z repl 1: -0.893
- Z Repl 2: -0.479
- av Z [1]: -0.686
- av puncta [2]: 11642.8
- raw data 1 (puncta): 15632.1
- raw data 2 (puncta): 7653.58

Compound: O=C(O)c1cccc(O)c1O [Pyrocatechuic acid]
- AvZ (average z score of seeding, SDs from the mean level of seeding): -0.338
- Z repl 1: -0.028
- Z Repl 2: -0.648
- av puncta [2]: 15926.2
- raw data 1 (raw puncta): 26009.1
- raw data 2 (raw puncta): 5843.4

Compound: OC[C@H]1O[C@@H](Oc2cc(O)cc(/C=C/c3ccc(O)cc3)c2)[C@H](O)[C@@H](O)[C@@H]1O (mixture of isomers) [(E/Z)-Polydatin]
- Z repl 1: 0.505
- Z Repl 2: -0.119
- av Z [3]: 0.193
- av puncta (average of raw data 1 and 2): 21956.3
- raw data 1 (puncta): 32412.5
- raw data 2 (puncta): 11500.1

Compound: Cl.NCC(O)c1ccc(O)cc1 (centres unmarked) [Octopamine (hydrochloride)]
- AvZ (average z score of seeding, SDs from the mean level of seeding): -0.005
- Z repl 1: -0.187
- Z Repl 2: 0.177
- av puncta (average of raw data 1 and 2): 19376.3
- raw data 1 (puncta): 24099.8
- raw data 2 (puncta): 14652.9

Compound: COc1cc(-c2cc(=O)c3c(O)c(OC)c(O)cc3o2)ccc1O [Jaceosidin]
- Z repl 1: 1.473
- Z Repl 2: 0.443
- av Z [4]: 0.958
- av puncta (average of raw data 1 and 2): 30766.9
- raw data 1 (puncta): 44034.1
- raw data 2 (puncta): 17499.7

Compound: O=c1cc(-c2ccccc2)oc2c(O)c(O)cc(O)c12 [Norwogonin]
- Z repl 1: -0.966
- Z Repl 2: -0.652
- av Z [1]: -0.809
- av puncta (average of raw data 1 and 2): 10276.7
- raw data 1 (puncta): 14754.3
- raw data 2 (puncta): 5799.06

Compound: CC(C)=CCc1cc(-c2coc3cc(O)ccc3c2=O)ccc1O [Neobavaisoflavone]
- Z repl 1: 0.415
- Z Repl 2: -0.147
- av Z [3]: 0.134
- av puncta (average of raw data 1 and 2): 21263.5
- raw data 1 (puncta): 31334.3
- raw data 2 (puncta): 11192.7

Compound: COc1ccc(C(C)=O)c(O)c1O [2,3-Dihydroxy-4-methoxyacetophenone]
- AvZ (average z score of seeding, SDs from the mean level of seeding): 0.13
- Z repl 1: 0.385
- Z Repl 2: -0.124
- av puncta (average of raw data 1 and 2): 21205.2
- raw data 1 (puncta): 30969.9
- raw data 2 (puncta): 11440.6

Compound: CC(C)=CCc1c(O)cc2oc3cc(O)c(O)c(CC=C(C)C)c3c(=O)c2c1O [Gamma-Mangostin]
- Z repl 1: -0.442
- Z Repl 2: -0.111
- av Z [1]: -0.277
- av puncta [2]: 16310.3
- raw data 1 (raw puncta): 21043.4
- raw data 2 (raw puncta): 11577.2

Compound: O=C(O[C@@H]1Cc2c(O)cc(O)cc2O[C@@H]1c1cc(O)c(O)c2c(=O)c(O)cc([C@H]3Oc4cc(O)cc(O)c4C[C@H]3O)cc12)c1cc(O)c(O)c(O)c1 [Theaflavin-3'-gallate]
- Z repl 1: -2.15
- Z Repl 2: -1.186
- av puncta (average of raw data 1 and 2): 320.554
- raw data 1 (puncta): 542.499
- raw data 2 (puncta): 98.608

Compound: Echinacoside
- Z repl 1: 0.125
- Z Repl 2: -0.609
- av Z [1]: -0.242
- av puncta [2]: 17056.9
- raw data 1 (raw puncta): 27847.2
- raw data 2 (raw puncta): 6266.63

Compound: Cc1cc(=O)oc2cc(O)cc(O)c12 [5,7-Dihydroxy-4-methylcoumarin]
- Z repl 1: 0.623
- Z Repl 2: -0.301
- av Z [3]: 0.161
- av puncta (average of raw data 1 and 2): 21685.4
- raw data 1 (puncta): 33822.8
- raw data 2 (puncta): 9548.03

Compound: O=c1c(O[C@@H]2O[C@H](CO)[C@@H](O)[C@H](O)[C@H]2O[C@@H]2O[C@H](CO)[C@@H](O)[C@H](O)[C@H]2O)c(-c2ccc(O)c(O)c2)oc2cc(O)cc(O)c12 [Baimaside]
- Z repl 1: 1.152
- Z Repl 2: 0.927
- av Z [4]: 1.04
- av puncta (average of raw data 1 and 2): 31424.7
- raw data 1 (puncta): 40179
- raw data 2 (puncta): 22670.4

Compound: O=C(O)CC(=O)OC[C@H]1O[C@@H](Oc2c(-c3ccc(O)c(O)c3)oc3cc(O)cc(O)c3c2=O)[C@H](O)[C@@H](O)[C@@H]1O
- Z repl 1: -0.599
- Z Repl 2: -0.958
- av Z [1]: -0.779
- av puncta (average of raw data 1 and 2): 10843.5
- raw data 1 (puncta): 19152.5
- raw data 2 (puncta): 2534.57

Compound: NCc1ccc(O)cc1 [4-Hydroxybenzylamine]
- AvZ (average z score of seeding, SDs from the mean level of seeding): -0.572
- Z repl 1: -0.693
- Z Repl 2: -0.451
- av puncta [2]: 12984.9
- raw data 1 (puncta): 18024.8
- raw data 2 (puncta): 7945.11

Compound: COc1cc(-c2oc3cc(O)cc(O)c3c(=O)c2O)ccc1O [Isorhamnetin]
- Z repl 1: 0.124
- Z Repl 2: -0.648
- av Z [1]: -0.262
- av puncta [2]: 16840.7
- raw data 1 (raw puncta): 27835.2
- raw data 2 (raw puncta): 5846.21

Compound: CC=C1[C@H](O[C@@H]2O[C@H](CO)[C@@H](O)[C@H](O)[C@H]2O)OC=C(C(=O)OC)[C@H]1CC(=O)OC[C@H]1O[C@@H](OCCc2ccc(O)cc2)[C@H](O)[C@@H](O)[C@@H]1O (stereo in doubt) [Specneuzhenide]
- Z repl 1: -0.904
- Z Repl 2: 0.064
- av Z [1]: -0.42
- av puncta [2]: 14474.2
- raw data 1 (raw puncta): 15493.9
- raw data 2 (raw puncta): 13454.5

Compound: COc1ccc2c(c1O)-c1c(OC)c(OC)cc3c1[C@H](C2)N(C)CC3 [Isocorydine]
- Z repl 1: -0.45
- Z Repl 2: -0.651
- av Z [1]: -0.55
- av puncta [2]: 13380.4
- raw data 1 (puncta): 20943.6
- raw data 2 (puncta): 5817.19

Compound: O=C(O)c1c(O)cccc1O [2,6-Dihydroxybenzoic acid]
- AvZ (average z score of seeding, SDs from the mean level of seeding): 0.715
- Z repl 1: 0.475
- Z Repl 2: 0.955
- av puncta (average of raw data 1 and 2): 27508.9
- raw data 1 (puncta): 32047.3
- raw data 2 (puncta): 22970.5

Compound: COc1ccc(-c2oc3c(CCC(C)(C)O)c(O)cc(O)c3c(=O)c2O)cc1 [Wushanicaritin]
- Z repl 1: -0.889
- Z Repl 2: -0.335
- av Z [1]: -0.612
- av puncta [2]: 12429.8
- raw data 1 (puncta): 15671.6
- raw data 2 (puncta): 9188.09

Compound: CC(=O)c1c(C)cc2cccc(O)c2c1O [Nepodin]
- Z repl 1: -0.364
- Z Repl 2: 0.129
- av Z (average Z score of two replicates, Phenols Library screen): -0.118
- av puncta (average of raw data 1 and 2): 18059
- raw data 1 (puncta): 21978.8
- raw data 2 (puncta): 14139.2

Compound: O=C(O)C=Cc1ccc(O)cc1 [p-Coumaric acid]
- AvZ (average z score of seeding, SDs from the mean level of seeding): -0.287
- Z repl 1: -0.724
- Z Repl 2: 0.15
- av puncta [2]: 16011.2
- raw data 1 (raw puncta): 17659.3
- raw data 2 (raw puncta): 14363.1

Compound: Oc1cccc2ccccc12 [1-Naphthol]
- Z repl 1: 1.606
- Z Repl 2: 0.927
- av Z [4]: 1.267
- av puncta (average of raw data 1 and 2): 34150.6
- raw data 1 (puncta): 45632.1
- raw data 2 (puncta): 22669.1

Compound: Cl.NCC(O)c1ccc(O)c(O)c1 (racemic) [DL-Norepinephrine (hydrochloride)]
- av puncta (average of raw data 1 and 2): 22344.8
- raw data 1 (puncta): 29267.2
- raw data 2 (puncta): 15422.3

Compound: CC(C)c1ccc2c(c1O)CC[C@H]1C3=C(CC[C@]21C)C(=O)OC3 [Triptophenolide]
- Z repl 1: 0.422
- Z Repl 2: 0.028
- av Z [3]: 0.225
- av puncta (average of raw data 1 and 2): 22243.1
- raw data 1 (puncta): 31418
- raw data 2 (puncta): 13068.1

Compound: O=C(/C=C/c1ccc(O)c2oc(-c3ccc(O)c(O)c3)cc12)O[C@H](Cc1ccc(O)c(O)c1)C(=O)O [Salvianolic acid C]
- Z repl 1: -1.645
- Z Repl 2: -1.179
- av Z [1]: -1.412
- av puncta (average of raw data 1 and 2): 3386.53
- raw data 1 (puncta): 6602.17
- raw data 2 (puncta): 170.893

Compound: O=C(O)CNC(=O)c1cccc(O)c1 [3-Hydroxyhippuric acid]
- AvZ (average z score of seeding, SDs from the mean level of seeding): 0.023
- Z repl 1: 0.493
- Z Repl 2: -0.448
- av puncta (average of raw data 1 and 2): 20125.5
- raw data 1 (puncta): 32267.3
- raw data 2 (puncta): 7983.73

Compound: O=C(/C=C/c1ccc(O)cc1)c1c(O)cc(O)cc1O [Naringenin chalcone]
- Z repl 1: -1.271
- Z Repl 2: -0.404
- av Z [1]: -0.838
- av puncta (average of raw data 1 and 2): 9770.58
- raw data 1 (puncta): 11089.3
- raw data 2 (puncta): 8451.87

Compound: O=C1c2cccc(O)c2C(=O)c2c(O)cccc21 [Danthron]
- Z repl 1: -1.052
- Z Repl 2: -0.634
- av Z [1]: -0.843
- av puncta (average of raw data 1 and 2): 9858.03
- raw data 1 (puncta): 13720.6
- raw data 2 (puncta): 5995.43

Compound: Cc1c(O)c(C)c2c(c1O)C(=O)C[C@@H](c1ccc(O)cc1)O2 [Farrerol]
- Z repl 1: -0.382
- Z Repl 2: -0.766
- av Z [1]: -0.574
- av puncta [2]: 13173.8
- raw data 1 (puncta): 21763
- raw data 2 (puncta): 4584.63

Compound: O=C(O)c1ccc(O)c(O)c1 [Protocatechuic acid]
- AvZ (average z score of seeding, SDs from the mean level of seeding): -0.565
- Z repl 1: -0.928
- Z Repl 2: -0.202
- av puncta [2]: 12912.5
- raw data 1 (puncta): 15212.3
- raw data 2 (puncta): 10612.8
